Converted amounts (≈) assume the structure as drawn.

In test [1] the test system is Mycobacterium tuberculosis. Description: Antimycobacterial activity against Mycobacterium tuberculosis H37Rv assessed as reduction in bacterial cell growth incubated for 14 days by broth dilution method. Type of test: functional. The note with it: 336 h. In general terms: Broth dilution looks for growth in wells or tubes with falling amounts of substance.
The next test has as its system Staphylococcus aureus. Kind of test: Antibacterial activity against Staphylococcus aureus ATCC 25923 assessed as reduction in bacterial cell growth incubated for 24 hrs by two fold serial dilution. It counts as functional. The note with it: ATCC 25923, 24 h.
The subject of another test is Bacillus subtilis. Kind of test: Antibacterial activity against Bacillus subtilis ATCC 6051 assessed as reduction in bacterial cell growth incubated for 24 hrs by two fold serial dilution. Type of test: functional. The note with it: ATCC 6051, 24 h.
The subject of the next test is Escherichia coli. Description: Antibacterial activity against Escherichia coli ATCC 25922 assessed as reduction in bacterial cell growth incubated for 24 hrs by two fold serial dilution. It counts as functional. As to conditions: ATCC 25922, 24 h.
A further test has as its system Pseudomonas aeruginosa. Description: Antibacterial activity against Pseudomonas aeruginosa ATCC 27853 assessed as reduction in bacterial cell growth incubated for 24 hrs by two fold serial dilution. Type of test: functional. As to conditions: ATCC 27853, 24 h.
Test [2] deals with Mycobacteroides abscessus. Kind of test: Antimycobacterial activity against Mycobacterium abscessus ATCC 19977 assessed as reduction in bacterial cell growth incubated for 3 days by broth dilution method. The note with it: ATCC 19977, 72 h. It counts as functional.
Test [3] relates to HepG2. Description: Cytotoxicity against human HepG2 cells incubated for 6 hrs by MTT assay. The note with it: HepG2, 6 h. It counts as functional, cell-based. Background: Tetrazolium dyes change colour on reduction, which living cells bring about.
The test system of test [4] is HepG2. Kind of test: Cytotoxicity against human HepG2 cells assessed as cell membrane leakage by measuring LDH released incubated for 6 hrs by spectrophotometry. As to conditions: HepG2, 6 h. Type of test: functional. For orientation: LDH leaks from cells whose membrane has failed.

The MIC is the least concentration at which growth counts as inhibited. Consider `O=[N+]([O-])c1ccc(S(=O)(=NSC(F)(F)F)N2CCOCC2)cc1` (configuration not stated), for which the MIC in test [1] was 16 to 32 µg/mL (≈ 43.1 to 86.2 µM); with Staphylococcus aureus, 128 to 256 µg/mL (≈ 345 to 689 µM); with Bacillus subtilis, 128 to 256 µg/mL (≈ 345 to 689 µM); in the test with Escherichia coli, 128 to 256 µg/mL (≈ 345 to 689 µM); in the test with Pseudomonas aeruginosa, 256 µg/mL (≈ 689 µM); in test [2], 32 to 64 µg/mL (≈ 86.2 to 172 µM).
On to `N=S(=O)(c1ccc([N+](=O)[O-])cc1)N1CCCC1` (configuration not stated), for which the MIC in test [1] and in test [2] was more than 64 µg/mL in each case.
Consider `Cc1ccc(S(=O)(=NSC(F)(F)F)N2CCOCC2)cc1` (configuration not stated), for which the MIC in test [1] fell in the range of 8 to 16 µg/mL (≈ 23.5 to 47 µM); in test [2], 16 to 32 µg/mL (≈ 47 to 94 µM).
What is called IC50 is the midpoint of a concentration-inhibition curve. Low readings indicate higher potency, high ones lower potency. Regarding `CS(=N)(=O)c1ccccc1` (configuration not stated), the MIC in the test on Staphylococcus aureus, in the test on Bacillus subtilis, in the test on Escherichia coli and in the test on Pseudomonas aeruginosa was more than 512 µg/mL each time. In addition, the IC50 with HepG2 [3] was more than 100 µg/mL. Also, in the test on HepG2 [4], the MCC came out at 100 µg/mL.
Consider `O=[N+]([O-])c1ccc(S(=O)(=NSC(F)(F)F)N2CCCC2)cc1` (configuration not stated), for which the MIC is 16 to 32 µg/mL (≈ 45 to 90 µM) in test [1]; 32 µg/mL (≈ 90 µM) with Staphylococcus aureus; 64 µg/mL (≈ 180 µM) with Bacillus subtilis; more than 512 µg/mL in the test on Escherichia coli; more than 512 µg/mL in the test on Pseudomonas aeruginosa; 16 to 32 µg/mL (≈ 45 to 90 µM) in test [2].
Turning to `Cc1ccc(S(=O)(=NSC(F)(F)F)N2CCCCC2)cc1` (configuration not stated), the figures for the MIC in test [1] and in test [2] were 4 to 8 µg/mL (≈ 11.8 to 23.6 µM) and more than 64 µg/mL, respectively. The same compound gave an IC50 in the test on HepG2 [3] of 65 µg/mL (≈ 192 µM). Further, the MCC in the test on HepG2 [4] came to 0.1 µg/mL.
As for `Cc1ccc(S(=O)(=NSC(F)(F)F)N2CCCC2)cc1` (configuration not stated), the MIC was 64 µg/mL (≈ 197 µM) in the test with Staphylococcus aureus, 32 µg/mL (≈ 98.6 µM) in the test on Bacillus subtilis, more than 512 µg/mL in the test on Escherichia coli and more than 512 µg/mL in the test on Pseudomonas aeruginosa.
For the compound `O=S(=NC(F)(F)F)(c1ccccc1)c1ccccc1`, the MIC in test [1] is more than 64 µg/mL; with Staphylococcus aureus, more than 512 µg/mL; in the test with Bacillus subtilis it was more than 512 µg/mL; in the test on Escherichia coli it was more than 512 µg/mL; in the test on Pseudomonas aeruginosa, more than 512 µg/mL. In addition, in the test with HepG2 [3], the IC50 worked out at 200 µg/mL (≈ 701 µM). In the test on HepG2 [4], the MCC was determined as 200 µg/mL.
Consider `N=S(=O)(c1ccccc1)N1CCOCC1` (configuration not stated), for which the MIC in test [1] and in test [2] was more than 64 µg/mL throughout.
As to `CCN(CC)S(=O)(=NSC(F)(F)F)c1ccc([N+](=O)[O-])cc1` (configuration not stated), the MIC was 16 to 32 µg/mL (≈ 44.8 to 89.5 µM) in test [1]; 32 to 64 µg/mL (≈ 89.5 to 179 µM) in the test with Staphylococcus aureus; 16 to 32 µg/mL (≈ 44.8 to 89.5 µM) in the test with Bacillus subtilis; more than 512 µg/mL in the test on Pseudomonas aeruginosa; 16 to 32 µg/mL (≈ 44.8 to 89.5 µM) in test [2].
On to `O=S(=NSC(F)(F)F)(c1ccccc1)N1CCOCC1` (configuration not stated), for which the MIC in the test on Staphylococcus aureus came out at 32 µg/mL (≈ 98 µM); in the test with Bacillus subtilis it was 32 µg/mL (≈ 98 µM); in the test with Escherichia coli, 128 µg/mL (≈ 392 µM); in the test on Pseudomonas aeruginosa it was 256 µg/mL (≈ 784 µM).
In the case of `CS(=O)(=NSC(F)(F)F)c1ccccc1` (configuration not stated), the MIC in test [1] is 4 to 8 µg/mL (≈ 15.7 to 31.3 µM); in the test with Staphylococcus aureus, 16 µg/mL (≈ 62.7 µM); with Bacillus subtilis, 16 µg/mL (≈ 62.7 µM); in the test with Escherichia coli it was 16 µg/mL (≈ 62.7 µM); with Pseudomonas aeruginosa it was 128 µg/mL (≈ 501 µM); in test [2], more than 64 µg/mL. Half-maximal inhibition in the test with HepG2 [3] (IC50) was put at 15 µg/mL (≈ 58.8 µM). Further, the MCC in the test with HepG2 [4] was 0.1 µg/mL.
Consider `O=S(=NSC(F)(F)F)(c1ccccc1)c1ccccc1`, for which the MIC in test [1] was 4 to 8 µg/mL (≈ 12.6 to 25.2 µM); with Staphylococcus aureus it was 32 µg/mL (≈ 101 µM); in the test with Bacillus subtilis, 16 µg/mL (≈ 50.4 µM); in the test with Escherichia coli, 256 µg/mL (≈ 807 µM); in the test on Pseudomonas aeruginosa, 256 µg/mL (≈ 807 µM); in test [2] it was more than 64 µg/mL. The same compound registered a 50% inhibitory concentration (IC50) with HepG2 [3] of 90 µg/mL (≈ 284 µM). Also, the MCC with HepG2 [4] came to 1 µg/mL.
Turning to `O=[N+]([O-])c1ccc(S(=O)(=NSC(F)(F)F)N2CCCCC2)cc1` (configuration not stated), the MIC in test [1] is more than 64 µg/mL; in the test with Staphylococcus aureus, 32 µg/mL (≈ 86.6 µM); with Bacillus subtilis, 64 µg/mL (≈ 173 µM); in test [2], 32 to 64 µg/mL (≈ 86.6 to 173 µM).
Turning to `CS(=O)(=NC(F)(F)F)c1ccccc1` (configuration not stated), the MIC in test [1] was more than 64 µg/mL; in the test on Staphylococcus aureus it was more than 512 µg/mL; in the test with Bacillus subtilis, more than 512 µg/mL; in the test on Escherichia coli, more than 512 µg/mL; in the test on Pseudomonas aeruginosa, more than 512 µg/mL. Moreover, the IC50 in the test on HepG2 [3] was more than 200 µg/mL.
For `O=S(=NSC(F)(F)F)(c1ccccc1)N1CCCC1` (configuration not stated), the minimum inhibitory concentration (MIC) in test [1] was 4 to 8 µg/mL (≈ 12.9 to 25.8 µM); with Staphylococcus aureus it was 32 µg/mL (≈ 103 µM); in the test with Bacillus subtilis, 8 µg/mL (≈ 25.8 µM); in the test on Escherichia coli it was 128 µg/mL (≈ 412 µM); with Pseudomonas aeruginosa it was 512 µg/mL (≈ 1650 µM); in test [2], more than 64 µg/mL. In the test on HepG2 [3], this compound yielded an IC50 of 15 µg/mL (≈ 48.3 µM). The MCC with HepG2 [4] was found to be 0.1 µg/mL.

For the origin of these results see ChEMBL document CHEMBL4304836, “N-Trifluoromethylthiolated Sulfonimidamides and Sulfoximines: Anti-microbial, Anti-mycobacterial, and Cytotoxic Activity” (ACS Med Chem Lett, 2019).
